Reference: patent US9708314B2, “Heterocyclic amide compound” (NISSAN CHEMICAL INDUSTRIES, LTD., priority 2013, dated 2017)

Columns and labels:
Format in all cases: in vivo
[1] = system: Apera spica-venti.; assay: Test Example 4: herbicidal effect by application to foliage (diluvial soil, plastic box); details: application to foliage, application herbicide amount 320 g/ha
Excerpt: (§1) 5 Herbicidal ratio of 90% or more (almost completely withered) 4 Herbicidal ratio of 70% or more and less than 90% 3 Herbicidal ratio of 40% or more and less than 70% 2 Herbicidal ratio of 20% or more and less than 40% 1 Herbicidal ratio of 5% or more and less than 20% 0 Herbicidal ratio of 5% or less (almost no effect) [Test Example 4] Herbicidal Effect Test by Application to Foliage Sterilized diluvial soil was placed in a plastic box having a length of 21 cm, a width of 13 cm, and a depth of 7 cm. Each of the seeds of Digitaria ciliaris, Setaria viridis, Echinochloa crus-galli var. crus-galli, Avena fatua, Alopecurus myosuroides, Lolium multiflorum Lam., Apera spica-venti., Abutilon theophrasti, Amaranthus retroflexus, Chenopodium album, Stellaria media, Galium spurium, Veronica persica, Zea mays, Glycine max, Oryza sativa, Triticum aestivum, Beta vulgaris ssp. vulgaris, and Brassica campestris L. was sowed in a spot-like manner and was covered with the soil of about 1.5 cm thick. Thereafter, the plants were grown in the greenhouse of 25° C. to 30° C. After the plants were grown for 14 days, the emulsion agent containing the compound of the present invention prepared in accordance with Formulation Example 2 was diluted with water so as to be a predetermined herbicide amount and the diluted compound was uniformly applied to a stem and leaf part with a small-size spray. Three weeks after the herbicide application, effects on each plant were investigated in accordance with the criteria of Test Example 1. A: Echinochloa oryzicola Vasing., B: Scirpus juncoides, C: Monochoria vaginalis, D: Leptochloa chinensis, E: Cyperus difformis, F: Digitaria ciliaris, G: Setaria viridis, H: Echinochloa crus-galli var. crus-galli, I: Avena fatua, J: Alopecurus myosuroides, K: Lolium multiflorum Lam., L: Apera spica-venti., M: Abutilon theophrasti, N: Amaranthus retroflexus, O: Chenopodium album, P: Stellaria media, Q: Galium spurium, R: Veronica persica, a: transplanted Oryza sativa, b: directly sowed Oryza sativa, c: Zea mays, d: Glycine max, e: Triticum aestivum, f: Beta vulgaris ssp. vulgaris, and g: Brassica campestris L. The application herbicide amount (g/ha) means an amount that a concentration is adjusted so that, when an application amount is converted into per hectare (1 ha), the herbicide is applied by the number of grams (g) of the described value.

[2] = system: Echinochloa crus-galli var. crus-galli; assay: as above; details: application to foliage, application herbicide amount 320 g/ha
Excerpt: as §1

[3] = system: Veronica persica; assay: as above; details: application to foliage, application herbicide amount 320 g/ha
Excerpt: as §1

[4] = system: Chenopodium album; assay: as above; details: application to foliage, application herbicide amount 320 g/ha
Excerpt: as §1

[5] = system: Abutilon theophrasti; assay: as above; details: application to foliage, application herbicide amount 320 g/ha
Excerpt: as §1

[6] = system: Lolium multiflorum Lam.; assay: as above; details: application to foliage, application herbicide amount 320 g/ha
Excerpt: as §1

[7] = system: Stellaria media; assay: as above; details: application to foliage, application herbicide amount 320 g/ha
Excerpt: as §1

[8] = system: Galium spurium; assay: as above; details: application to foliage, application herbicide amount 320 g/ha
Excerpt: as §1

[9] = system: Amaranthus retroflexus; assay: as above; details: application to foliage, application herbicide amount 320 g/ha
Excerpt: as §1

[10] = system: Digitaria ciliaris; assay: as above; details: application to foliage, application herbicide amount 320 g/ha
Excerpt: as §1

[11] = system: Avena fatua; assay: as above; details: application to foliage, application herbicide amount 320 g/ha
Excerpt: as §1

[12] = system: Alopecurus myosuroides; assay: as above; details: application to foliage, application herbicide amount 320 g/ha
Excerpt: as §1

[13] = system: Setaria viridis; assay: as above; details: application to foliage, application herbicide amount 320 g/ha
Excerpt: as §1

[14] = system: directly sowed Oryza sativa; assay: Test Example 3: effect on crop by application to foliage (Wagner pot, water depth 0.1-0.5 cm); details: Nineteenth Table; application to foliage; application herbicide amount 320 g/ha
Excerpt: 5 Herbicidal ratio of 90% or more (almost completely withered) 4 Herbicidal ratio of 70% or more and less than 90% 3 Herbicidal ratio of 40% or more and less than 70% 2 Herbicidal ratio of 20% or more and less than 40% 1 Herbicidal ratio of 5% or more and less than 20% 0 Herbicidal ratio of 5% or less (almost no effect) [Test Example 3] Herbicidal Effect Test by Application to Foliage After alluvial soil was placed into 1/10000 are of Wagner pot, water was poured and mixed to form a condition having a water depth of 0.1 cm to 0.5 cm. Seeds of Echinochloa crus-galli var. crus-galli, Leptochloa chinensis, Cyperus difformis, and Oryza sativa were sowed and the pot was placed in the greenhouse of 25° C. to 30° C. to grow the plants. After the plants were grown for 14 days, the emulsion agent containing the compound of the present invention prepared in accordance with Formulation Example 2 was diluted with water so as to be a predetermined herbicide amount and the diluted compound was uniformly applied to a stem and leaf part with a small-size spray. Three weeks after the herbicide application, effects on each plant were investigated in accordance with the criteria of Test Example 1. A: Echinochloa oryzicola Vasing., B: Scirpus juncoides, C: Monochoria vaginalis, D: Leptochloa chinensis, E: Cyperus difformis, F: Digitaria ciliaris, G: Setaria viridis, H: Echinochloa crus-galli var. crus-galli, I: Avena fatua, J: Alopecurus myosuroides, K: Lolium multiflorum Lam., L: Apera spica-venti., M: Abutilon theophrasti, N: Amaranthus retroflexus, O: Chenopodium album, P: Stellaria media, Q: Galium spurium, R: Veronica persica, a: transplanted Oryza sativa, b: directly sowed Oryza sativa, c: Zea mays, d: Glycine max, e: Triticum aestivum, f: Beta vulgaris ssp. vulgaris, and g: Brassica campestris L. The application herbicide amount (g/ha) means an amount that a concentration is adjusted so that, when an application amount is converted into per hectare (1 ha), the herbicide is applied by the number of grams (g) of the described value.

[15] = system: Echinochloa crus-galli var. crus-galli; assay: Test Example 3: herbicidal effect by application to foliage (Wagner pot, water depth 0.1-0.5 cm); details: Nineteenth Table; application to foliage; application herbicide amount 320 g/ha
In short: (§2)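 Visual 0–5 rating of herbicidal ratio, taken 3 weeks after foliar spray of a diluted emulsion formulation at rates expressed as g/ha. Plants had been sown in alluvial soil under 0.1–0.5 cm water and grown 14 days at 25–30 °C under glass before application.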

[16] = system: Leptochloa chinensis; assay: as above; details: Nineteenth Table; application to foliage; application herbicide amount 320 g/ha
In short: as §2

[17] = system: Glycine max; assay: Test Example 4: effect on crop by application to foliage (diluvial soil, plastic box); details: application to foliage, application herbicide amount 320 g/ha
In short: (§3)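 Seeds sown in sterilized diluvial soil, covered ~1.5 cm, grown 14 days in greenhouse at 25° C. to 30° C. Emulsion formulation diluted in water to set rate (g/ha) and sprayed onto stems and leaves. Effect scored visually 3 weeks later on 0–5 scale (5 = ≥90% herbicidal ratio, 0 = ≤5%).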

[18] = system: Brassica campestris L.; assay: as above; details: application to foliage, application herbicide amount 320 g/ha
In short: as §3

[19] = system: Beta vulgaris ssp. vulgaris; assay: as above; details: application to foliage, application herbicide amount 320 g/ha
In short: as §3

[20] = system: Triticum aestivum; assay: as above; details: application to foliage, application herbicide amount 320 g/ha
In short: as §3

[21] = system: Zea mays; assay: as above; details: application to foliage, application herbicide amount 320 g/ha
In short: as §3

[22] = system: directly sowed Oryza sativa; assay: as above; details: application to foliage, application herbicide amount 320 g/ha
In short: as §3

Row | SMILES | L: herbicidal effect on Apera spica-venti. [1] | H: herbicidal effect on Echinochloa crus-galli var. crus-galli [2] | R: herbicidal effect on Veronica persica [3] | O: herbicidal effect on Chenopodium album [4] | M: herbicidal effect on Abutilon theophrasti [5] | K: herbicidal effect on Lolium multiflorum Lam. [6] | P: herbicidal effect on Stellaria media [7] | Q: herbicidal effect on Galium spurium [8] | N: herbicidal effect on Amaranthus retroflexus [9] | F: herbicidal effect on Digitaria ciliaris [10] | I: herbicidal effect on Avena fatua [11] | J: herbicidal effect on Alopecurus myosuroides [12] | G: herbicidal effect on Setaria viridis [13] | b (effect on crop grade) [14] | H (herbicidal effect grade) [15] | D (herbicidal effect grade) [16] | d: effect on crop, Glycine max [17] | g: effect on crop, Brassica campestris L. [18] | f: effect on crop, Beta vulgaris ssp. vulgaris [19] | e: effect on crop, Triticum aestivum [20] | further results
1 | Cc1nnc(NC(=O)c2ccc(C(F)(F)F)n3c(C4CC=CCC4)nnc23)o1 (centres unmarked) [1-170] | 1 (Herbicidal ratio of 5% or more and less than 20%) | 4 (Herbicidal ratio of 70% or more and less than 90%) | 4 (Herbicidal ratio of 70% or more and less than 90%) | 5 (Herbicidal ratio of 90% or more (almost completely withered)) | 3 (Herbicidal ratio of 40% or more and less than 70%) | 1 (Herbicidal ratio of 5% or more and less than 20%) | 4 (Herbicidal ratio of 70% or more and less than 90%) | 2 (Herbicidal ratio of 20% or more and less than 40%) | 3 (Herbicidal ratio of 40% or more and less than 70%) | 4 (Herbicidal ratio of 70% or more and less than 90%) | 1 (Herbicidal ratio of 5% or more and less than 20%) | 0 (Herbicidal ratio of 5% or less (almost no effect)) | 3 (Herbicidal ratio of 40% or more and less than 70%) | 1 (Herbicidal ratio of 5% or more and less than 20%) | 2 (Herbicidal ratio of 20% or more and less than 40%) | 4 (Herbicidal ratio of 70% or more and less than 90%) | 2 (Herbicidal ratio of 20% or more and less than 40%) | 3 (Herbicidal ratio of 40% or more and less than 70%) | 5 (Herbicidal ratio of 90% or more (almost completely withered)) | 0 (Herbicidal ratio of 5% or less (almost no effect)) | c: effect on crop, Zea mays [21]: 0 (Herbicidal ratio of 5% or less (almost no effect)); b: effect on crop, directly sowed Oryza sativa [22]: 0 (Herbicidal ratio of 5% or less (almost no effect))
2 | CCN(C(=O)c1ccc(C(F)(F)F)n2c(C3(C)CC3(Cl)Cl)nnc12)c1nnc(C)o1 (centres unmarked) [1-174, 3-(2,2-Dichloro-1-methylcyclopropyl)-N-ethyl-N-(5-methyl-1,3,4-oxadiazol-2-yl)-5-(trifluoromethyl)-[1,2,4]triazolo[4,3-a]pyridine-8-carboxamide] | 0 (Herbicidal ratio of 5% or less (almost no effect)) | 0 (Herbicidal ratio of 5% or less (almost no effect)) | 3 (Herbicidal ratio of 40% or more and less than 70%) | 5 (Herbicidal ratio of 90% or more (almost completely withered)) | 0 (Herbicidal ratio of 5% or less (almost no effect)) | 0 (Herbicidal ratio of 5% or less (almost no effect)) | 3 (Herbicidal ratio of 40% or more and less than 70%) | 3 (Herbicidal ratio of 40% or more and less than 70%) | 4 (Herbicidal ratio of 70% or more and less than 90%) | 0 (Herbicidal ratio of 5% or less (almost no effect)) | 0 (Herbicidal ratio of 5% or less (almost no effect)) | 0 (Herbicidal ratio of 5% or less (almost no effect)) | 0 (Herbicidal ratio of 5% or less (almost no effect)) | 0 (Herbicidal ratio of 5% or less (almost no effect)) | 2 (Herbicidal ratio of 20% or more and less than 40%) | 2 (Herbicidal ratio of 20% or more and less than 40%) | 0 (Herbicidal ratio of 5% or less (almost no effect)) | 0 (Herbicidal ratio of 5% or less (almost no effect)) | 4 (Herbicidal ratio of 70% or more and less than 90%) | 0 (Herbicidal ratio of 5% or less (almost no effect)) | c: effect on crop, Zea mays [21]: 0 (Herbicidal ratio of 5% or less (almost no effect)); b: effect on crop, directly sowed Oryza sativa [22]: 0 (Herbicidal ratio of 5% or less (almost no effect))
